This note sets out measurements from patent US9528114B2, “Method for amplifying locus in bacterial cell” (DANISCO US INC., priority 2008, dated 2016).

The structures appear in SMILES notation.

The test system of assay [1] is BG3594, pDALsub1. The assay is described as follows: Sensitivity to β-chloro-D-alanine of strain carrying alr-expressing plasmid, LB agar plates. Details: key to Resistance (growth) on LB agar plate: +: growth; −: no growth. The assay is classed as cell-based, Bacillus subtilis. The note with it: for Resistance (growth) on LB agar plate: strain BG3594, pDALsub1. On the procedure: (§1) In a first phase, the concentration of β-chloro-D-alanine (CDA) necessary to inhibit growth of B. subtilis was determined by plating dilutions of LB-grown strain BG3594 on LB agar plates containing different concentrations of CDA. […] Other alanine racemase inhibitors, such as cycloserine, could be used instead of CDA.

Assay [2] has as its system Bacillus subtilis BG3594. The assay is described as follows: Sensitivity threshold to β-chloro-D-alanine, dilutions plated on LB agar plates. It is filed as cell-based. The arrangement: key to Resistance (growth) on LB agar plate: +: growth; −: no growth. The note with it: for Resistance (growth) on LB agar plate: strain BG3594; for Growth of BG3594 in presence of CDA: LB agar. As to the method:
as §1

For the compound `N[C@H](CCl)C(=O)O` [CDA, β-chloro-D-alanine], the “Resistance (growth) on LB agar plate” value is reported as “+” in assay [1] (CDA 20 mg/L); “+” in assay [1] (CDA 50 mg/L); “+” in assay [1] (CDA 100 mg/L); “+” in assay [2] (CDA 20 mg/L); “−**” in assay [2] (CDA 50 mg/L); “−” in assay [2] (CDA 100 mg/L). Besides, in assay [1] (all CDA concentrations tested (up to 100 mg/L), LB agar), the “Growth of BG3594 with alr-expressing plasmid in presence of CDA” value is “allows growth”. The “Growth of BG3594 in presence of CDA” value in assay [2] (concentration of 20 mg/L) is reported as “can still grow”; in assay [2] (concentration of 50 mg/L), “totally inhibited”.
